Laboratory results as given in patent US6432978B1, “SF2809-I,II,III,IV,V and VI substances exhibiting chymase-inhibiting activities” (Meiji Seika Kaisha, Ltd., priority 1998, dated 2002).

Legend:
human chymase = target: T1, human chymase (Homo sapiens, UniProt P23946); test: Determination of chymase-inhibiting activity (Test Example 1); format: biochemical; details: activated human recombinant chymase; substrate succinyl-alanyl-histidyl-prolyl-phenylalanyl-para-nitroanilide; buffer pH 8.0; room temperature, 5 minutes; absorbance at 405 nm; read-out: 50% inhibitory concentrations (IC50) against the human chymase
T1 construct: made in house; host or cells: insect cells (Tn5) infected with recombinant baculovirus
T1 sequence (P23946 22-247): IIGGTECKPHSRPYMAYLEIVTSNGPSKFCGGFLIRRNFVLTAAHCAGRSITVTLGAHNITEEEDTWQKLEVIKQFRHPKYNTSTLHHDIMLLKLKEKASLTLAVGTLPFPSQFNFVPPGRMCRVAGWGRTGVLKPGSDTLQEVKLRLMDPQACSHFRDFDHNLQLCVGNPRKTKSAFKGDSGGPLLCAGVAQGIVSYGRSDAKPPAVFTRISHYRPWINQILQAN
Experimental: In this Example, the chymase-inhibiting activity of SF2809 substances was determined as described below.
A human recombinant chymase was prepared in accordance with the method of Urata et al's report (Urata et al., J. Biol. Chem., Vol. 266, p.17173, 1991). Thus, cultivation was made of insect cells (Tn5) which had been infected with recombinant baculovirus containing therein such cDNA that encodes the human chymase. The resulting culture of the insect cells was filtered and the resultant supernatant was treated with Heparin-sepharose (Pharmacia's product) to recover the chymase. The chymase so recovered was then purified. Then, the purified chymase was activated in accordance with the method of Murakami et al's report (Murakami et al, J. Biol. Chem., Vol. 270, p.2218, 1991), after which the activated chymase was purified with Heparin-sepharose to afford an activated type of human chymase.
To 50 μl of a buffer A (comprising 0.5˜3.0 M NaCl, 50 mM tris hydrochloric acid, pH 8.0) which contained 1˜5 ng of the active-type of human chymase as prepared in (1) above, there was added 2 μl of a solution in dimethylsulfoxide (DMSO) of an SF2809 substance as the test substance. Then, to the resulting mixture, there was added 50 μl of a buffer A which contained 0.5 mM of succinyl-alanyl-histidyl-prolyl-phenylalanyl-para-nitroanilide (Buckem's product) as a substrate. The resultant admixture was incubated at room temperature for 5 minutes. The change in the absorbance at 405 nm of the reaction solution was measured with passage of the incubation time, thereby to examine the chymase-inhibiting activity of the SF2809 substance under test.

[1] = Solubility (physicochemical properties); details: in methanol, ethyl acetate, dimethylsulfoxide, chloroform, hexane and water; result in words

Row | Compound | IC50 (human chymase) | Solubility [1]
1 | CC(=O)NCCc1c(C(c2ccc(O)cc2)c2c(O)c3ccccc3n(C)c2=O)[nH]c2ccccc12 (stereo not drawn) [SF2809-II substance] | 41 nM | Soluble in methanol, ethyl acetate and dimethylsulfoxide; sparingly soluble in chloroform; and insoluble in hexane and water
2 | CC(=O)NCCc1c(C(c2ccccc2)c2c(O)c3ccccc3n(C)c2=O)[nH]c2ccccc12 (stereo not drawn) [SF2809-V substance] | 43 nM | Soluble in methanol, ethyl acetate, dimethylsulfoxide and chloroform; and insoluble in hexane and water
3 | Cn1c(=O)c(Cc2[nH]c3ccccc3c2CCO)c(O)c2ccccc21 [SF2809-III substance] | 2100 nM | Soluble in methanol, ethyl acetate and dimethylsulfoxide; sparingly soluble in chloroform; and insoluble in hexane and water
4 | Cn1c(=O)c(C(c2ccccc2)c2[nH]c3ccccc3c2CCO)c(O)c2ccccc21 (stereo not drawn) [SF2809-VI substance] | 14 nM | Soluble in methanol, ethyl acetate, dimethylsulfoxide and chloroform; and insoluble in hexane and water
5 | CC(=O)NCCc1c(Cc2c(O)c3ccccc3n(C)c2=O)[nH]c2ccccc12 [SF2809-I substance] | 7300 nM | Soluble in methanol, ethyl acetate and dimethylsulfoxide; sparingly soluble in chloroform; and insoluble in hexane and water
6 | Cn1c(=O)c(C(c2ccc(O)cc2)c2[nH]c3ccccc3c2CCO)c(O)c2ccccc21 (stereo not drawn) [SF2809-IV substance] | 81 nM | Soluble in methanol, ethyl acetate and dimethylsulfoxide; sparingly soluble in chloroform; and insoluble in hexane and water
